Here are results for five molecules from patent US6288230A, “2-(2, 3-dihydrobenzofuran-5-yl)-4-aminomethylimidazoles: dopamine receptor subtype specific ligands” (Neurogen Corporation, priority 1999, dated 2001).

Structures can show the parent of a compound that is named as a salt.

The subject of assay [1] is D4 receptor. As to the kind of experiment: D4 receptor binding (displacement of 3H-YM 09151-2, COS cells with recombinant receptor). More on the design: species or system African Green monkey. The note with it: 0.5 nM 3H-YM 09151-2; nonspecific binding with 1 mM spiperone. The protocol:
Pellets of COS cells containing recombinantly produced D2 or D4 receptors from African Green monkey are used for the assays. The sample is homogenized in 100 volumes (w/vol) of 0.05 M Tris HCl buffer at […] and pH 7.4. The sample is then centrifuged at 30,000×g and resuspended and rehomogenized. The sample is then centrifuged again at 30,000×g and the final tissue sample is frozen until use. The tissue is resuspended 1:20 (wt/vol) in 0.05 M Tris HCl buffer containing 100 mM NaCl.

The target in assay [2] is D2 receptor (Chlorocebus aethiops, UniProt P52702). Kind of assay: D2 receptor binding (displacement of 3H-YM 09151-2, COS cells with recombinant receptor). Particulars: 0.5 nM 3H-YM 09151-2; nonspecific binding with 1 mM spiperone. The arrangement: species or system African Green monkey.
Chain of D2 receptor (P52702 whole entry): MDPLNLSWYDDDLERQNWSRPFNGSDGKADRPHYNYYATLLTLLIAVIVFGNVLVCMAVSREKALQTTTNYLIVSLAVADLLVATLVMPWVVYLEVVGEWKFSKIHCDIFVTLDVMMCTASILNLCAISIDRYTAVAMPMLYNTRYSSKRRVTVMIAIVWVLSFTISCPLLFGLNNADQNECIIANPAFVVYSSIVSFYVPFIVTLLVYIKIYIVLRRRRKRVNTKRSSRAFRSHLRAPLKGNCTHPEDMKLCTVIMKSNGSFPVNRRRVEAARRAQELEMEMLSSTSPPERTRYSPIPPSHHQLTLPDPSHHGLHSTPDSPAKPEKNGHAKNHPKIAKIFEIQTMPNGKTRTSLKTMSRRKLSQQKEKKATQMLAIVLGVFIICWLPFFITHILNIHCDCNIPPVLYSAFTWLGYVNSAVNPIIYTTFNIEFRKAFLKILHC

In the case of `c1ccc2c(N3CCN(Cc4c[nH]c(-c5ccc6c(c5)CCO6)n4)CC3)nccc2c1` [Compound 8, 2-(2,3-Dihydrobenzofuran-5-yl)-4-(1-[4-{isoquinolin-1-yl}piperazin-1-yl]methyl)imidazole], the inhibition constant Ki in assay [1] was determined as 1 nM; in assay [2], 125 nM.

With `COc1ccccc1N1CCN(Cc2c[nH]c(-c3ccc4c(c3)CCO4)n2)CC1` [Compound 1, 2-(2,3-Dihydrobenzofuran-5-yl)-4-(1-[4-{2-methoxyphenyl}piperazin-1-yl]methyl)imidazole], the values for the Ki in assay [1] and in assay [2] were 3 nM and 143 nM, respectively.

As to `Cc1cnc(N2CCN(Cc3cnc(-c4ccc5c(c4)CCO5)[nH]3)CC2)nc1` [Compound 3a, 5-(5-{[4-(5-methylpyrimidin-2-yl)piperazinyl]-methyl}imidazol-2-yl)-2,3-dihydrobenzo[b]furan], in assay [2], the Ki came out at 716 nM.

For `c1ccc(CC2CCN(Cc3c[nH]c(-c4ccc5c(c4)CCO5)n3)CC2)cc1` [Compound 6, 2-(2,3-Dihydrobenzofuran-5-yl)-4-(1-[4-benzylpiperidin-1-yl]methyl)imidazole hydrochloride], the Ki in assay [1] came to 3 nM; in assay [2], 650 nM.

Take `c1ccc2nc(N3CCN(Cc4cnc(-c5ccc6c(c5)CCO6)[nH]4)CC3)ncc2c1` [Compound 7, 2-(2,3-Dihydrobenzofuran-5-yl)-4-(1-[4-{4,5-benzopyrimidin-2-yl}piperazin-1-yl]methyl)imidazole hydrochloride]: the inhibition constant (Ki) in assay [1] was determined as 32 nM; in assay [2] it was 1130 nM.
